According to US4611059A, “Pyridyl-substituted benzothiophenes” (The Upjohn Company, priority 1985, dated 1986):

Biological target: T1, TXA2 synthetase (Homo sapiens, UniProt P24557)
T1 construct: human platelet microsomes (HPM); from tissue; host or cells: human platelet microsomes
T1 sequence (P24557 1-533): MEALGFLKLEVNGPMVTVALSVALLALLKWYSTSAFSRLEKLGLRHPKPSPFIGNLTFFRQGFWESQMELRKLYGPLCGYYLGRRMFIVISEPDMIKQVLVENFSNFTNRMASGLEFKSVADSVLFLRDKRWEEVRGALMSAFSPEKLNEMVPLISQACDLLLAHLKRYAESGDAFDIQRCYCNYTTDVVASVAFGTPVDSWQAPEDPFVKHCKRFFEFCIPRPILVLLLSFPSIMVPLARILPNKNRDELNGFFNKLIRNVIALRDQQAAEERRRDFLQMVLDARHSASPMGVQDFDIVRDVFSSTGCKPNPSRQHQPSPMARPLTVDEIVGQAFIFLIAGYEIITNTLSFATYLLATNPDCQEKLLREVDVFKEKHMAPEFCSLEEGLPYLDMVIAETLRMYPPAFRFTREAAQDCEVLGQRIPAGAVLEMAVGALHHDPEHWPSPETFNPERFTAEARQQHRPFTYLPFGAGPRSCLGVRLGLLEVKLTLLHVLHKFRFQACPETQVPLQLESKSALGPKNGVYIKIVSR
Test: TXA2 inhibition test: TXA2 generated from PGH2 with human platelet microsomes, measured by the response of superfused rabbit aortic strips
Format: biochemical
Conditions: test compound added to human platelet microsomes 5 minutes before mixing with PGH2; rabbit aorta response; read-out: approximate ED50 (inhibiting TXA2 formation) (converted)
Procedure: The compounds of the present invention were tested for TXA2 inhibition as follows:
Rabbit aortic strips were superfused in series with Krebs solution. Thromboxane A2 (TXA2) was generated by mixing prostaglandin H2 (PGH2) with human platelet microsomes (HPM).
Potential inhibitors were tested by comparing the response of the rabbit aorta to the amount of TXA2 produced by mixing PGH2 and HPM without the test compound in the reaction medium and then the amount of TXA2 produced when the test compound was added to the HPM 5 minutes before the HPM was mixed with PGH2. […] For a discussion of TXA2 synthetase inhibition testing see, e.g., R. Gorman, supra.

IC50: ~3.71 nM
Compound: O=C(O)c1cc2cc(Cc3cccnc3)ccc2s1 [Example 7, 5-(3-pyridinylmethyl)benzo[b]thiophene-2-carboxylic acid]
